In BindingDB's records for doi:10.1016/s0960-894x(98)00264-9 (Royal Danish School of Pharmacy, 1999):
pEC50: −log10 of the molar value.

Assays:
[1] = Compound was evaluated for agonistic activity against mGluR2 alpha metabotropic receptor subtype in rat cortical slice model
[2] = Compound was evaluated for agonistic activity against mGluR4a alpha metabotropic receptor subtype in rat cortical slice model

Row | SMILES | pEC50 [1] | pEC50 [2]
1 | CNC(C(=O)O)c1cc(=O)[nH]o1 (stereo unspecified) [(3-Hydroxy-isoxazol-5-yl)-methylamino-acetic acid] | < 3.00 | < 3.00
2 | O=C(O)C(NCc1ccccc1)c1cc(=O)[nH]o1 (stereo unspecified) [Benzylamino-(3-hydroxy-isoxazol-5-yl)-acetic acid] | < 3.00 | < 3.00
3 | CCNC(C(=O)O)c1cc(=O)[nH]o1 (stereo unspecified) [Ethylamino-(3-hydroxy-isoxazol-5-yl)-acetic acid] | < 3.00 | < 3.00
